Laboratory results: patent publication US20200309767A1, “HIGH-THROUGHPUT IMAGING-BASED METHODS FOR PREDICTING CELL-TYPE-SPECIFIC TOXICITY OF XENOBIOTICS WITH DIVERSE CHEMICAL STRUCTURES” (priority 2015, published 2020)
“Also recorded” adds a separate entry of the source. Where two headings read alike, the source gives them in different places.

Assays:
[1] = test system: histone H2AX phosphorylated on serine 139 (γH2AX); type: cell-based, human
primary PTCs = conditions: 1000 μg/mL
human kidney = conditions: cited from earlier work
liver = conditions: in vivo; cited from earlier work
[2] = test system: human proximal tubular cells (PTCs); conditions: cited from earlier work
lung = conditions: cited from earlier work
HK-2 cells = conditions: previously observed (Wu et al.); cited from earlier work
[3] = known human kidney toxicity flag 1/0
[4] = known in vivo group, Toxic / Non-toxic

| Molecule | Hepatotoxic (liver) | change in γH2AX levels [1] | Nephrotoxic (human kidney; in vivo) | PTC Toxicity ([2]; human, in vivo) | PTC-toxic ([2]; human, in vivo) | further results |
| --- | --- | --- | --- | --- | --- | --- |
| C[C@@H]1Cc2c(Cl)cc(C(=O)N[C@@H](Cc3ccccc3)C(=O)O)c(O)c2C(=O)O1 [Ochratoxin A] | 0 | – | – | – | – | change in γH2AX levels ([1]; HPTC-B results): increasing levels; also recorded: large increase; cells with increased annexin-V levels (primary PTCs; 16 hours): ~25%; increase in cell death rates (primary PTCs; within the measured period (16 hours)): very small or no increase; Nephrotoxic (human kidney; [3]): 1; PTC Toxicity [2, 4]: Toxic; PTC-toxic ([2]; known toxicity flag 1/0): 1 |
| [Cl-].[Li+] [Lithium chloride] | 0 | small or no change | 1 | Non-toxic | 0 | Pulmonotoxic (lung; human, in vivo): 0 |
| N.N.[Cl][Pt][Cl] [Cisplatin] | – | increasing levels | – | – | – | – |
| O=c1[nH]cc(F)c(=O)[nH]1 [5-Fluorouracil] | 1 | – | 1 | Toxic | 1 | apoptotic responses (HK-2 cells): lack of apoptotic responses |
| Gentamicin | 0 | – | 1 | Toxic | 1 | apoptotic responses (HK-2 cells): lack of apoptotic responses |
| [Cd+2].[Cl-].[Cl-] [Cadmium(II) chloride] | 1 | – | – | – | – | Nephrotoxic (human kidney; [3]): 1; Pulmonotoxic (lung; known toxicity flag 1/0): 1; PTC Toxicity [2, 4]: Toxic; PTC-toxic ([2]; known toxicity flag 1/0): 1 |
| NC(=O)c1ncn([C@@H]2O[C@H](CO)[C@@H](O)[C@H]2O)n1 [Ribavirin] | 0 | small or no change | 0 | Non-toxic | 0 | – |
| CCC[C@@H]1C[C@@H](C(=O)N[C@@H]([C@H]2O[C@H](SC)[C@H](O)[C@@H](O)[C@H]2O)[C@@H](C)O)N(C)C1 [Lincomycin] | 0 | small or no change | 1 | Non-toxic | 0 | – |
| C[n+]1ccc(-c2cc[n+](C)cc2)cc1 [Paraquat] | 1 | – | 1 | Toxic | 1 | Pulmonotoxic (lung; human, in vivo): 1 |
